# Measurements reported in ChEMBL document CHEMBL1126488, “A new designed tumor selective daunomycin derivative” (Bioorg Med Chem Lett, 1993).
# How the values were obtained:
# P388 [1] = test: Cytotoxicity of compound was tested against P-388 cell line (mouse leukemia) after incubation for 72 hour; type: functional, cell-based; conditions: P388, 72 h
# SK-MEL-28 [2] = test: Cytotoxicity of compound was tested against SK-Mel-28 cell line (melanoma) after incubation for 72 hour; type: functional, cell-based; conditions: Homo sapiens, SK-MEL-28, 72 h
# HL-60 [3] = test: Cytotoxicity of compound was tested against HL-60 cell line (promyelocytic leukemia) after incubation for 72 hour; type: functional, cell-based; conditions: Homo sapiens, HL-60, 72 h
# MCF7 [4] = test: Cytotoxicity of compound was tested against MCF-7 cell line (breast carcinoma) after incubation for 72 hour; type: functional, cell-based; conditions: Homo sapiens, MCF7, 72 h
# HMEC [5] = test: Cytotoxicity of compound was tested against HMEC cell line (human mamm epithelial cells) after incubation for 72 hour; type: functional, cell-based
# CHO [6] = test: Cytotoxicity of compound was tested against CHO cell line (Chinese hamster ovary) after incubation for 24 hour; type: functional, cell-based; conditions: Cricetulus griseus
# HT-29 [7] = test: Cytotoxicity of compound was tested against HT-29 cell line (colon carcinoma) after incubation for 24 hour; type: functional, cell-based; conditions: Homo sapiens, HT-29, 24 h
# HT-29 [8] = test: Cytotoxicity of compound was tested against HT-29 cell line (colon carcinoma) after incubation for 72 hour; type: functional, cell-based; conditions: Homo sapiens, HT-29, 72 h
# P388 [9] = test: Cytotoxicity of compound was tested against P-388 cell line (mouse leukemia) after incubation for 24 hour; type: functional, cell-based; conditions: P388, 24 h
# OVCAR-3 [10] = test: Cytotoxicity of compound was tested against Ovcar-3 cell line (ovarian carcinoma) after incubation for 72 hour; type: functional, cell-based; conditions: Homo sapiens, OVCAR-3, 72 h
# HMEC [11] = test: Cytotoxicity of compound was tested against HMEC cell line (human mamm epithelial cells) after incubation for 24 hour; type: functional, cell-based
# NHDF [12] = test: Cytotoxicity of compound was tested against NHDF cell line (norm human dermal fibroblast) after incubation for 72 hour; type: functional, cell-based
# MOLT-4 = test: Cytotoxicity of compound was tested against Molt-4 cell line (T-cell leukemia) after incubation for 24 hour; type: functional, cell-based; conditions: Homo sapiens, MOLT-4, 24 h
# CAPAN-1 [13] = test: Cytotoxicity of compound was tested against Capan-1 cell line (pancreatic carcinoma) after incubation for 24 hour; type: functional, cell-based; conditions: Homo sapiens, CAPAN-1, 24 h
# SK-MEL-28 [14] = test: Cytotoxicity of compound was tested against SK-Mel-28 cell line (melanoma) after incubation for 24 hour; type: functional, cell-based; conditions: Homo sapiens, SK-MEL-28, 24 h
# OVCAR-3 [15] = test: Cytotoxicity of compound was tested against Ovcar-3 cell line (ovarian carcinoma) after incubation for 24 hour; type: functional, cell-based; conditions: Homo sapiens, OVCAR-3, 24 h
# NHDF [16] = test: Cytotoxicity of compound was tested against NHDF cell line (norm human dermal fibroblast) after incubation for 24 hour; type: functional, cell-based
# HL-60 [17] = test: Cytotoxicity of compound was tested against HL-60 cell line (promyelocytic leukemia) after incubation for 24 hour; type: functional, cell-based; conditions: Homo sapiens, HL-60, 24 h
# CAPAN-1 [18] = test: Cytotoxicity of compound was tested against […] cell line (pancreatic carcinoma) after incubation for 72 hour; type: functional, cell-based; conditions: Homo sapiens, CAPAN-1, 72 h
# CHO [19] = test: Cytotoxicity of compound was tested against CHO cell line (Chinese hamster ovary) after incubation for 72 hour; type: functional, cell-based; conditions: Cricetulus griseus
# MCF7 [20] = test: Cytotoxicity of compound was tested against MCF-7 cell line (breast carcinoma) after incubation for 24 hour; type: functional, cell-based; conditions: Homo sapiens, MCF7, 24 h
# [21] = Lethal dose of compound required when administered BALB C mice; type: toxicity; conditions: mouse, in vivo
# UCLA P-3 = test: Cytotoxicity of compound was tested against UCLA P-3 cell line (lung carcinoma) after incubation for 24 hour; type: functional, cell-based; conditions: Homo sapiens, UCLA P-3, 24 h
structure (smiles),measurement,setting,value
COc1cccc2c1C(=O)c1c(O)c3c(c(O)c1C2=O)C[C@@](O)(C(C)=O)C[C@@H]3O[C@H]1C[C@H](N)[C@H](O)[C@H](C)O1.Cl [DAUNORUBICIN HYDROCHLORIDE],IC50,P388 [1],< 0.098 µM
same,IC50,SK-MEL-28 [2],1.41 µM
same,IC50,HL-60 [3],0.098 µM
same,IC50,MCF7 [4],13.5 µM
same,IC50,HMEC [5],< 0.098 µM
same,IC50,CHO [6],0.39 µM
same,IC50,HT-29 [7],0.78 µM
same,IC50,HT-29 [8],0.357 µM
same,IC50,P388 [9],0.39 µM
same,IC50,OVCAR-3 [10],0.287 µM
same,IC50,HMEC [11],0.39 µM
same,IC50,NHDF [12],0.404 µM
same,IC50,MOLT-4,0.001 µM
same,IC50,CAPAN-1 [13],0.39 µM
same,IC50,SK-MEL-28 [14],1.6 µM
same,IC50,OVCAR-3 [15],0.39 µM
same,IC50,NHDF [16],0.19 µM
same,IC50,HL-60 [17],< 0.098 µM
same,IC50,CAPAN-1 [18],3.1 µM
same,IC50,CHO [19],0.294 µM
same,IC50,MCF7 [20],0.78 µM
same,LD50,[21],15 mg/kg
same,IC50,UCLA P-3,0.73 µM
